Data as given in publication PMC10302127 (Medicina, 2023).
Values after ≈ are worked out from the molar mass of the structure shown.

Experiments:
[1] = tested on: P. aeruginosa; assay: Antibacterial disc diffusion; type: cell-based, Pseudomonas aeruginosa; settings: P. aeruginosa (G − ve)
Method: (§1) The antibacterial activity of the synthesized compound was evaluated using the disc diffusion method in accordance with the clinical and laboratory standards institute’s recommendations. Molten Mueller–Hinton agar and Sabouraud dextrose agar media were inoculated with the inoculum at 35 ± 2 °C and then poured into a Petri dish (90 mm). Each sample was soaked on 6 mm absorbent discs in dimethyl sulfoxide (DMSO) and placed on the inoculation plates. After 2 h at 4 °C, the plates were incubated at 35 ± 2 °C for 18–20 h. The inhibition zone diameters were determined. Positive control discs of selected antibiotics were included in each assay; inhibition zones were compared to the reference discs. Negative controls were treated with DMSO, and the assays were performed in triplicate.

[2] = tested on: S. typhi; assay: Antibacterial disc diffusion; type: cell-based, Salmonella typhi; settings: S. typhi (G − ve)
Method: as §1

[3] = tested on: E. coli; assay: Antibacterial disc diffusion; type: cell-based, Escherichia coli; settings: E. coli (G − ve)
Method: as §1

[4] = tested on: B. subtilis; assay: Antibacterial disc diffusion; type: cell-based, Bacillus subtilis; settings: B. subtilis (G + ve)
Method: as §1

[5] = tested on: S. aureus; assay: Antibacterial disc diffusion; type: cell-based; settings: S. aureus (G + ve) in Table 2, disc diffusion
Method: as §1

[6] = tested on: five bacterial pathogens; assay: Antibacterial disc diffusion, statements on groups of bacteria; type: cell-based
Method: as §1

[7] = tested on: brine shrimp nauplii; assay: Brine shrimp lethality bioassay; settings: 24 and 48 h
Method: Vials A, B, C, and D contained 4, 8, 16, and 32 μL of material. Each vial received 10 brine shrimp nauplii at […]. Ten nauplii in 5 mL saltwater were used for a control test. The vials were incubated at room temperature for 24–48 h. After incubation, the vials were magnified and counted to determine how many survived. Each concentration has an average nauplii mortality rate.

[8] = tested on: E. coli; assay: MIC and MBC microdilution; settings: Escherichia coli
Method: (§3) Microdilution techniques were employed to calculate the minimum inhibitory concentration (MIC) and the minimum bactericidal concentration (MBC). […] After solidification, the medium incorporated was seeded from suspensions of bacteria at a concentration of 0.5 McFarland standard (1.0 × 10^8 CFU/mL). After 18–20 h of incubation at 35 ± 2 °C, the absence or presence of microbial growth in Petri dishes was determined by examination with the naked eye. […] All compounds were evaluated three times against each microorganism.

[9] = tested on: B. subtilis; assay: MIC and MBC microdilution; settings: Bacillus subtilis
Method: as §3

[10] = tested on: Aspergillus flavus; assay: Mycelial growth inhibition, poisoned food method; type: cell-based; settings: 20 μg/μL in DMSO
Method: (§2) The potato dextrose agar (PDA)-based antifungal experiment was screened using the food poisoning approach. Sterilized 70 mm glass Petri dishes were filled with 20 mL melted PDA (45 °C). After the medium solidified, sterilized needles placed small amounts of mycelia from the two fungal pathogens in the center of each plate. […] After 48 h at 37 °C, mycelial growth was measured.

[11] = tested on: S.typhi; assay: MIC and MBC microdilution; settings: Salmonella enterica
Method: as §3

[12] = tested on: B. cereus; assay: MIC and MBC microdilution; settings: Bacillus cereus
Method: as §3

[13] = tested on: P. aeruginosa; assay: MIC and MBC microdilution; settings: Pseudomonas aeruginosa
Method: as §3

[14] = tested on: Bacillus cereus; assay: Antibacterial disc diffusion; type: cell-based; settings: as named in text
Method: as §1

[15] = tested on: Aspergillus niger; assay: Mycelial growth inhibition, poisoned food method; type: cell-based; settings: for Millimeters of Fungal Mycelial Growth Inhibition in DMSO (20 μg/μL): Aspergillus niger, 20 μg/μL in DMSO
Method: as §2

[16] = tested on: EAC (Ehrlich ascites carcinoma) cells; assay: MTT assay, antiproliferative activity; type: cell-based, Swiss albino mouse
Method: Ehrlich ascites carcinoma (EAC) cells were cultivated in conventional DMEM from a Swiss albino mouse bearing a tumor [45]. A 96-well flat-bottomed cell culture plate with 2 × 10^4 cells in 100 μL was incubated at 37 °C in a CO2 incubator for 24 h. Controls were three wells of untreated EAC cells in DMEM. […] After removing the aliquot, 10 mM PBS and 20 μL of MTT reagent (5 mg/mL MTT in PBS) were added. After another 8 h at 37 °C, the aliquot was drained, and acidic isopropanol (200 μL) was added. Absorbance values at 570 nm were recorded after another 30 min CO2 incubator incubation. The following formula was used to estimate cell proliferation incubation:Proliferation inhibition ratio (%) = (A − B) × 100/A where A and B represent the cellular homogenate OD570 nm from control wells and compound 6-treated wells, respectively.

Row | SMILES | Diameter of Inhibition Zones [2] | Diameter of Inhibition Zones [5] | activity against Gram-positive organisms [6] | inhibition among all bacterial types [6] | death (brine shrimp mortality) [7] | inhibition against the Gram-negative bacteria P. aeruginosa and S. typhi [6] | Millimeters of Fungal Mycelial Growth Inhibition in DMSO (20 μg/μL) [10] | inhibition of A. niger [15] [%] | Millimeters of Fungal Mycelial Growth Inhibition in DMSO (20 μg/μL) [15] | also measured
1 | CC[C@H]1OC(=O)[C@H](C)[C@@H](O[C@H]2C[C@@](C)(OC)[C@@H](O)[C@H](C)O2)[C@H](C)[C@@H](O[C@@H]2O[C@H](C)C[C@H](N(C)C)[C@H]2O)[C@](C)(O)C[C@@H](C)CN(C)[C@H](C)[C@@H](O)[C@]1(C)O [Azithromycin, reference compound] | ** 18 ± 0.90 mm | ** 17 ± 0.50 mm |  |  |  |  |  |  |  | Diameter of Inhibition Zones [1]: ** 15 ± 0.10 mm; Diameter of Inhibition Zones [3]: ** 17 ± 0.50 mm; Diameter of Inhibition Zones [4]: ** 18 ± 0.10 mm
2 | O=c1ccn([C@@H]2O[C@H](CO)[C@@H](O)[C@H]2O)c(=O)[nH]1 [Compound 1, uridine, reference compound] |  |  | inactive | no inhibition |  |  |  |  |  | 
3 | CCCCCCCCCCCCCCCC(=O)OC[C@H]1O[C@@H](n2ccc(=O)[nH]c2=O)[C@H](O)[C@@H]1O [Compound 2, 5′-Oxo-palmitoyluridine] |  |  | inactive | no inhibition | 31.21% |  |  |  |  | 
4 | CCCCCCCCCCCCCCCC(=O)OCC1OC(n2ccc(=O)[nH]c2=O)C(OC(=O)CCCCCCCCCCC)C1OC(=O)CCCCCCCCCCC (centres unmarked) [Compound 3, 2′,3′-Di-oxo-lauroyl-5′-oxo-palmitoyluridine] | * 11.0 ± 0.0 mm |  | inactive |  | 48.24–49.28% | reasonable inhibition |  |  |  | 
5 | CCCCCCCCCCCCCCCC(=O)OCC1OC(n2ccc(=O)[nH]c2=O)C(OC(=O)CCCCCCCCCCCCC)C1OC(=O)CCCCCCCCCCCCC (centres unmarked) [Compound 4, 2′,3′-Di-oxo-myristoyl-5′-oxo-palmitoyluridine] |  | * 15 ± 0.50 mm |  |  | 48.24–49.28% | reasonable inhibition | 31 ± 0.15 Millimeters |  |  | Diameter of Inhibition Zones [1]: 7 ± 0.25 mm; MIC [8]: 0.5 µg/mL (≈ 0.554 µM); MBC [9]: 8 µg/mL (≈ 8.86 µM); MIC [9]: 4 µg/mL (≈ 4.43 µM); MBC [11]: 16 µg/mL (≈ 17.7 µM); MIC [11]: 0.5 µg/mL (≈ 0.554 µM); MIC [12]: 0.13 µg/mL (≈ 0.144 µM); MBC [13]: 16 µg/mL (≈ 17.7 µM); MIC [13]: 0.5 µg/mL (≈ 0.554 µM); inhibition zone [14]: 15 ± 0.50 mm
6 | CCCCCCCCCCCCCCCC(=O)OCC1OC(n2ccc(=O)[nH]c2=O)C(OC(c2ccccc2)(c2ccccc2)c2ccccc2)C1OC(c1ccccc1)(c1ccccc1)c1ccccc1 (centres unmarked) [Compound 5, 5′-oxo-Palmitoyl-2′,3′-di-oxo-trityluridine] | * 12 ± 0.25 mm | * 16 ± 0.20 mm |  |  | 34.25% |  | * 66 ± 0.39 Millimeters | 64 ± 0.44 | * 64 ± 0.44 Millimeters | MIC [8]: 4 µg/mL (≈ 4.14 µM); MBC ([8]; E. coli): 8 µg/mL (≈ 8.27 µM); MBC [9]: 8 µg/mL (≈ 8.27 µM); MIC [9]: 0.5 µg/mL (≈ 0.517 µM); MBC [11]: 8 µg/mL (≈ 8.27 µM); MIC [11]: 0.5 µg/mL (≈ 0.517 µM); MIC [12]: 1 µg/mL (≈ 1.03 µM); MBC ([12]; B. cereus): 16 µg/mL (≈ 16.5 µM); inhibition zone [14]: 16 ± 0.20 mm
7 | CCCCCCCCCCCCCCCC(=O)OC[C@H]1O[C@@H](n2ccc(=O)[nH]c2=O)[C@H](OC(=O)C=Cc2ccccc2)[C@@H]1OC(=O)C=Cc1ccccc1 [Compound 6, 2′,3′-Di-oxo-cinnamoyl-5′-oxo-palmitoyluridine] |  |  | inactive | no inhibition |  |  | 53 ± 0.33 Millimeters | 72 ± 0.95 | * 72 ± 0.95 Millimeters | cytotoxicity effects ([16]; 15.625 µg/mL): 3.11%; cytotoxicity effects ([16]; 31.25 µg/mL): 4.41%; cytotoxicity effects ([16]; 62.25 µg/mL (62.5 in Figure 5)): 5.41%; cytotoxicity effects ([16]; 125 µg/mL): 7.51%; cytotoxicity effects ([16]; 250 µg/mL): 14.02%; cytotoxicity effects ([16]; 500 µg/mL): 23.22%; IC50 ([16]; Mus musculus, Ehrlich, MTT): > 500 µg/mL
8 | CCCCCCCCCCCCCCCC(=O)OC[C@H]1O[C@@H](n2ccc(=O)[nH]c2=O)[C@H](OC(=O)c2ccc(C(C)(C)C)cc2)[C@@H]1OC(=O)c1ccc(C(C)(C)C)cc1 [Compound 7, 2′,3′-Di-oxo-(4-t-butylbenzoyl)-5′-oxo-palmitoyluridine] | 9 ± 0.00 mm |  | inactive |  | 33.71% | reasonable inhibition | * 63 ± 0.10 Millimeters | 66 ± 0.41 | * 66 ± 0.41 Millimeters | 
9 | C[C@@H]1[C@H](O)[C@@H](C)/C=C/C=C/CC/C=C/C=C/C=C/C=C/C(O[C@H]2O[C@H](C)[C@@H](O)[C@H](N)[C@@H]2O)CC2O[C@](O)(CC(O)C(O)CCC(O)CC(O)CC(O)CC(=O)O[C@H]1C)CC(O)C2C(=O)O (some centres unmarked) [Nystatin, reference compound] |  |  |  |  |  |  | 61 ± 0.00 Millimeters | 59 ± 0.00 | 59 ± 0.00 Millimeters | 
